Structures can show the parent of a compound that is named as a salt. Where two headings read alike, the source gives them in different places.
Assays:
[1] = system: SNU423 hepatocellular carcinoma cells; assay: Alamar Blue cell growth inhibition, SNU423; assay type: cell-based
Description: Cell growth was measured by Alamar Blue™ staining and the OD absorbance at 570 and 600 nm was determined by a microplate reader. The percentage of cell growth inhibition was calculated and compared with the control cells that were treated with 0.1% DMSO, the vehicle for the stilbene compounds.
(§1) Various cancer cell lines were grown in 96-well plates for drug sensitivity assays. Once cells achieved 50% confluence, the incubation media was changed to the same cell growth media with different concentrations of the tested compounds or vehicle alone. Cells were then incubated for 48 hours before the cell growth inhibition study. To determine the degree of cell growth inhibition, 1/10 volume of Alamar Blue™ solution was added to each well and optical density (OD) at 570 and 600 nm was determined. The percentage of growth inhibition was calculated according to the manufacturer's formula as follows: The percentage of growth is [(117216×A570)−(80586×A600)]/[(117216×A^o570)−(80586×A^o600)]×100. In this formula, A570 is the absorbance of the treated samples at 570 nm; A600 is the absorbance of the treated samples at 600 nm; A^o570 is the absorbance of the […] samples at 570 nm; and A^o600 is the absorbance of the untreated samples at 600 nm. The two constants, 117216 and 80586, are the extinction coefficients of Alamar Blue™ at 570 and 600 nm respectively. Each concentration was repeated in triplicate to minimize the error.
(§2) We first tested the cytotoxic effect of various stilbene derivatives for their in vitro efficacy of suppressing tumor cell proliferation. Cells were first plated in 96-well plates at 50% confluence and treated with 0, 0.01, 0.03, 0.1, 0.3, 1.0, 3.0, 10 μM concentrations of stilbene derivatives for 48 hours in triplicate. Alamar Blue™ reagent was added into each well at 1/10 volume and incubated for 2 hours before quantification of the absorbance at 570 and 600 nm.

[2] = system: SKOV3 ovarian cancer cells; assay: Alamar Blue cell growth inhibition, SKOV3; assay type: cell-based; details: for effective / active concentration: SKOV3, 48 hours
Description: Cells were incubated with various concentrations of the compounds for 48 hours. Cell growth was measured by Alamar Blue™ staining and the percentage of cell growth inhibition was calculated and compared with the control cells that were treated with 0.1% DMSO, the vehicle for the stilbene compounds.
as §1

MDA-MB231 cells = assay: immunofluorescent staining of tubulin, MDA-MB231; assay type: cell-based; details: CA4 10 nM, stilbene 4a 100 nM, vincristine 100 nM, 5b 3 μM; 16 hours
From the text: Nuclei were stained with 4′,6-diamidino-2-phenylindole (DAPI). Control cells show the reticular pattern of the microtubule network.

[3] = system: UCI101 ovarian cancer cells; assay: Alamar Blue cell growth inhibition, UCI101; assay type: cell-based; details: UCI101, 48 hours
Description: Cell growth was measured by AlamarBlue™ staining and the percentage of cell growth inhibition was calculated and compared with the control cells that were treated with 0.1% DMSO, the vehicles for the stilbene compounds.
Cells were treated with the tested drug for 2 days before analysis of cell growth by Alamar Blue™ staining. Cells treated with 0.1% DMSO were used as control and set as 100%.
(a) In vitro sensitivity of UCI101 cells toward three potential stilbene prodrugs, 5a-c, was tested in 96-well plates using Alamar Blue™ assays to determine cell growth inhibition. […] (b) 5b induces cell cycle change and apoptosis in UCI101 cells. Cells were incubated with 5b at 1, 3, 10 μM for 16 hours followed by PI staining and flow cytometry analysis. A subG0/1 population, representing apoptotic cells, appeared along with a decrease of the G1/G2 ratio after cells were treated with 3 μM 5b. Higher concentration (10 μM) of 5b completely killed cells, as was the case with stilbene 4a at […]. (c) Cells treated with stilbene 4a and 5b were stained with phospho-histone 3B, a mitotic marker. The positive signals of phospho-histone 3B were shown in green and nuclei were stained with DAPI in blue. […] (d) In vivo efficacy of 5b compared with stilbene 4a. Nude mice were injected with UCI101 ovarian cancer cells and treated with 7 doses of 5b,c or stilbene 4a every 2-3 days. Tumor volume was calculated and plotted against days.
as §1, §2

[4] = system: UCI101 ovarian cancer cells; assay: Western blot of signal transduction events, UCI101; assay type: cell-based; details: for phosphorylation of Chk1: 36 hours
Description: All these agents are microtubule interfering agents but with different binding sites. Cells were harvested at 0, 4, 8, 16 and 36 hours after drug treatment for Western blot analysis. […] Phosphorylation of both Cdc25C and Cdc2 disappeared after 16 hours and slightly recovered at 36 hours. […] Akt phosphorylation decreased after 16 hours of treatment.
In order to understand the mechanism of resistance of stilbenes, various signal transduction pathways were investigated to examine how cells respond to stilbene treatment. UCI101 ovarian cancer cells were treated with stilbenes 4a, 4c or paclitaxel (Taxol) at 0.1 μM for 0, 4, 8, 16 and 36 hours. Cells were harvested for Western blotting. Changes in the kinases involved in cell cycle progression from G2-M transition were first determined in Cdc2, Cdc25c, and mitotic spindle check point regulator BubR1. […] 36 hours after treatment, rephosphorylation of Cdc2 was observed. […] The higher molecular weight isomer of Cdc25c, the mitotic form, increased at 16 and 36 hours. […] A similar study was then performed with other microtubule interfering agents such as combretastatin A4, 13a and vincristine for comparison. A similar trend was observed among these three microtubule interfering agents (FIG. 18).

[5] = in vivo; cited from earlier work
Tubulin (>99% pure) = assay: tubulin polymerization assay (OD 340 nm); assay type: biochemical; details: OD340 nm; nocodazole and paclitaxel 10 μM
Description: FIG. 3a-d. Stilbenes inhibit tubulin polymerization. (a) Effect of stilbene 4a. Pure tubulin was incubated with various concentrations of stilbene 4a, 10 μM nocodazole, and 10 μM paclitaxel in the polymerization buffer. The OD at 340 nm was monitored every minute by SpectraMAX 250 and plotted against time. (b) Effect of stilbene 4c. (c) Comparison of same concentrations of stilbenes 4a, 4a trans, 4c and 4c trans with control. […] Tubulin was incubated with [^3H]-colchicine and various concentrations of different stilbenes for 20 min. Tubulin was then separated from the unbound [^3H]-colchicine by Microcon-30 and washed three times with PBS. The radioactivity of the tubulin was counted. […] All experiments were done in triplicates.
The tubulin polymerization assay kit was purchased from Cytoskeleton (Denver, Colo.). Tubulin (>99% pure) was mixed with general tubulin buffer (GTB, 80 mM PIPES pH 6.9, 2 mM MgCl2, 0.5 mM EGTA, and 1 mM GTP) in a 96-well plate at 37° C. Absorbance at 340 nm was measured every 1 min for 60 min by SpectraMAX 250 (Molecular Devices, Sunnyville, Calif.). Analysis of the results was performed by SoftMAX Pro version 1.2.0 from the same company.

HL60 cells = details: cited from earlier work; for IC50: read-out: IC50, induction of HL60 apoptosis
[6] = acute toxicity in dose escalating study; assay type: in vivo, mice
Description: Acute toxicity in dose escalating study: We investigated the efficacy of stilbene 4a in vivo using mouse xenograft model. First we determined the maximal tolerated dose of stilbene 4a since it has a higher potency in vitro. […] Subsequently mice fully recovered 30 min after injection.

[7] = system: MDA-MB231 breast cancer cells; assay: Alamar Blue cell growth inhibition, MDA-MB231; assay type: cell-based; details: Homo sapiens, MDA-MB-231; MDA-MB231
Description: Cell growth was measured by Alamar Blue™ staining and the percentage of cell growth inhibition was calculated and compared with control cells that were treated with 0.1% DMSO, the vehicles for the stilbene compounds.
as §1, §2

[8] = system: MiaPaCa2 pancreatic cancer cells; assay: Alamar Blue cell growth inhibition, MiaPaCa2; assay type: cell-based; details: Homo sapiens, MIA PaCa-2; MiaPaCa2
Description: as §1, §2

CC[C@]1(O)C[C@H]2CN(CCc3c([nH]c4ccccc34)[C@@](C(=O)OC)(c3cc4c(cc3OC)N(C=O)[C@H]3[C@@](O)(C(=O)OC)[C@H](OC(C)=O)[C@]5(CC)C=CCN6CC[C@]43[C@@H]65)C2)C1 [vincristine, reference compound]
relative potency ([1]; SNU423): equivalent | IC50 ([2]; Homo sapiens, SK-OV-3, SKOV, read-out: IC50): 50 to 100 nM | effective / active concentration [2]: 0.1 µM | microtubule pattern (MDA-MB231 cells): fine granular pattern without formation of microtubules | relative potency / activity [3]: about equal in their potency | phosphorylation of Stat3 ([4]; 0.1 μM): more pronounced | phosphorylation of Chk1 [4]: do not cause more phosphorylation of Chk1

COc1cc2c(c(OC)c1OC)-c1ccc(OP(=O)(O)O)cc1[C@@H](NC(C)=O)CC2 [ZD6126]
toxicity in phase I clinical trials [5]: cardiac toxicity (such as decreasing left ventricular ejection fraction) and dose limiting toxicity were observed

CC(=O)O[C@H]1C(=O)[C@@]2(C)[C@H]([C@H](OC(=O)c3ccccc3)[C@]3(O)C[C@H](OC(=O)[C@H](O)[C@@H](NC(=O)c4ccccc4)c4ccccc4)C(C)=C1C3(C)C)[C@]1(OC(C)=O)CO[C@@H]1C[C@@H]2O [paclitaxel, reference compound]
effect on tubulin polymerization (Tubulin (>99% pure)): enhanced | phosphorylation of Cdc2 at Tyr15 ([4]; 0.1 μM, 16 hours): decreased dramatically | phosphorylation of Chk1 [4]: do not cause more phosphorylation of Chk1

COc1cc(/C=C\c2ccc(OC)c(N)c2)cc(OC)c1 [stilbene 5c, cis-3,4′,5-trimethoxy-3′-aminostilbene]
cytotoxicity under overexpression of MDR gene (HL60 cells; Roberti et al.): not affected by overexpression of multiple-drug resistant (MDR) gene | IC50 (HL60 cells; Roberti et al.): 30 nM | acute toxicity at 6 or 33 mg/kg ([6]; 6 or 33 mg/kg intravenously): did not cause any acute toxicity | acute toxicity at 72 and 97 mg/kg ([6]; 72 and 97 mg/kg intravenously): transient weakness as shown by dragging feet and sluggish movement | time to full recovery after injection ([6]; 72 and 97 mg/kg intravenously): 30 min

COc1cc(/C=C\c2ccc(OC)c(N)c2)cc(OCCO)c1 [10a, (Z)-2-{3-[2-(3-Amino-4-methoxy-phenyl)-vinyl]-5-methoxy-phenoxy}-ethanol, hydrochloride]
IC50 ([1]; Homo sapiens, SNU-423, 48 h, read-out: IC50 (50% growth inhibition), SNU423, 48 hours): ≤ 300 nM | IC50 ([1]; read-out: IC50 (50% growth inhibition), SNU423, 48 hours, hydrochloride): 300 nM | activity ([2]; SKOV3): also effective | effective / active concentration [2]: 0.1 µM | IC50 [7]: 80 nM | IC50 [8]: 300 nM

COc1cc(/C=C\c2ccc(OC)c(O)c2)cc(OC)c1 [stilbene 6c, cis-3,4′,5-trimethoxy-3′-hydroxystilbene]
cytotoxicity under overexpression of MDR gene (HL60 cells): not affected by overexpression of multiple-drug resistant (MDR) gene | IC50 (HL60 cells; Roberti et al.): 30 nM

From patent US7781580B2, “Stilbene derivatives as new cancer therapeutic agents” (Virginia Commonwealth University, priority 2007, dated 2010)
